The values that follow come from patent US20110269763A1, “CRTH2 receptor ligands for medicinal uses” (7TM Pharma A/S, priority 2004, published 2011).

For experiment [1], the target named is T1, human CRTH2 (Homo sapiens, UniProt Q9Y5Y4, V204A).
T1 sequence (Q9Y5Y4 1-395 V204A): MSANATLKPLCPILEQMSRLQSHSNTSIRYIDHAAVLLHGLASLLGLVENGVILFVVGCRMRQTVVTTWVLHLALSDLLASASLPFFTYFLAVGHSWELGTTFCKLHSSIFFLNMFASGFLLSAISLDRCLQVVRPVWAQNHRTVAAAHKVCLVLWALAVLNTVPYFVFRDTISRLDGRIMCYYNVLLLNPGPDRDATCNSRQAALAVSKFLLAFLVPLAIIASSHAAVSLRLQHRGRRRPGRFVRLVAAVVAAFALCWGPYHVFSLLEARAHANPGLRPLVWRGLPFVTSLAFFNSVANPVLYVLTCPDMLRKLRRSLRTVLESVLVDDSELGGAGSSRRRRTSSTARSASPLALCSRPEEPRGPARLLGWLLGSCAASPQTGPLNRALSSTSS
In words: Functional antagonist BRET assay on HEK293 cells stably expressing human CRTH2-Rluc and GFP2-β-arr2. Type of experiment: cell-based. More on the design: expressed in transfected cells. As to conditions: read-out: Antag. IC50. In short, it runs like this: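 Cells (2×10^6/mL in D-PBS with glucose) were preincubated 15 min with antagonist at 1% DMSO, then agonist and DeepBlueC were co-injected. Emission at 400 and 515 nm was read 5 s later, and the mBRET ratio (515/400 nm) was used to derive IC50 from concentration–response curves.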

The target of experiment [2] is T1, human CRTH2. Briefly: Receptor binding assay: [3H]PGD2 competition binding on whole COS-7 cells transiently transfected with CRTH2 (also stable HEK293 cells). More on the design: expressed in transfected cells; host or cells: COS-7 (transient, calcium phosphate). The method, boiled down: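 Whole COS-7 cells transiently transfected with human CRTH2 (calcium phosphate), or stable HEK293 cells, competed against 0.1 nM [3H]PGD2 in HBSS/10 mM HEPES with 1% DMSO, 3 h at 4 °C. Nonspecific binding with 10 μM PGD2; scintillation counting, duplicates. IC50 from curve fitting.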

Where [3] appears, read: functional antagonist assay, Table 3.
The mark [4] stands for this setting: receptor binding assay, Table 3.
Where [5] appears, read: BRET, antagonist incubated 15 minutes prior to agonist.
The mark [6] stands for this setting: competition with 0.1 nM [3H]PGD2, whole cells, 3 h at 4° C.

Regarding `O=C(O)COc1ccc(Br)cc1-c1nc(-c2ccc(C(F)(F)F)cc2)no1` [D106, {4-Bromo-2-[3-(4-trifluoromethyl-phenyl)-[1,2,4]oxadiazol-5-yl]phenoxy}-acetic acid], the IC50 in experiment [1] (setting [3]) and in experiment [2] (setting [4]) was under 500 nM in each case.

As to `O=C(O)COc1ccc(Br)cc1-c1noc(-c2ccccc2)n1` [D138, [4-Bromo-2-(5-phenyl-[1,2,4]oxadiazol-3-yl)phenoxy]acetic acid], the values for the IC50 in experiment [1] (setting [5]) and in experiment [2] (setting [6]) were over 5000 nM and under 500 nM, respectively.

In the case of `CSc1ccccc1-n1cc(C(=O)c2cc(Br)ccc2OCC(=O)O)cn1` [D44, {4-Bromo-2-[1-(2-methylthiophenyl)-1H-pyrazole-4-carbonyl]phenoxy}acetic acid], the IC50 in experiment [1] (setting [5]) and in experiment [2] (setting [6]) was under 500 nM each time.

With `CC(Oc1ccc(Br)cc1C(=O)c1cnn(-c2ccc(Cl)c(Cl)c2)c1)C(=O)O` (stereo not drawn) [D64, 2-{4-Bromo-2-[1-(3,4-dichloro-phenyl)-1H-pyrazole-4-carbonyl]phenoxy}propionic acid], the IC50 in experiment [1] (setting [5]) and in experiment [2] (setting [6]) was under 500 nM in each case.

Regarding `O=C(O)COc1ccc(-c2ccc(Cl)cc2)cc1C(=O)c1cnn(-c2ccccc2)c1` [D9, [4′-Chloro-3-(1-phenyl-1H-pyrazole-4-carbonyl)biphenyl-4-yloxy]acetic acid], the IC50 in experiment [1] (setting [5]) and in experiment [2] (setting [6]) was under 500 nM each time.

On to `O=C(O)COc1ccc([N+](=O)[O-])cc1C(=O)c1cnn(-c2ccccc2Cl)c1` [D27, 4-Nitro-2-[1-(2-chlorophenyl)-1H-pyrazole-4-carbonyl]phenoxyacetic acid], for which the IC50 in experiment [1] (setting [5]) and in experiment [2] (setting [6]) was under 500 nM in each case.

`Cc1cccc(C)c1-n1cc(C(=O)c2cc(Br)ccc2OC(C)C(=O)O)cn1` (stereo not drawn) [D77, 2-{4-Bromo-2-[1-(2,6-dimethylphenyl)-1H-pyrazole-4-carbonyl]phenoxy}propionic acid]: the IC50 in experiment [1] (setting [5]) and in experiment [2] (setting [6]) was under 500 nM each time.

On to `O=C(O)COc1ccc(Br)cc1-c1nc(-c2cc(C(F)(F)F)cc(C(F)(F)F)c2)no1` [D109, {2-[3-(3,5-Bis-trifluoromethyl-phenyl)-[1,2,4]oxadiazol-5-yl]-4-bromo-phenoxy}-acetic acid], for which the IC50 in experiment [1] (setting [3]) was over 5000 nM; in experiment [2] (setting [4]), under 500 nM.

For `O=C(O)COc1ccc(Br)cc1C(=O)c1cnn(-c2ccc(Br)cc2)c1` [D16, 4-Bromo-2-[1-(4-bromophenyl)-1H-pyrazole-4-carbonyl]phenoxyacetic acid], the IC50 in experiment [1] (setting [5]) and in experiment [2] (setting [6]) was under 500 nM in each case.

`O=C(O)COc1ccc(Br)cc1CN1CC(=O)N(CCc2ccccc2)C1=O` [D140, 4-Bromo-2-(2,4-dioxo-3-phenethylimidazolidin-1-ylmethyl)phenoxyacetic acid]: the figures for the IC50 in experiment [1] (setting [5]) and in experiment [2] (setting [6]) were 500 to 5000 nM and under 500 nM, respectively.

As to `O=C(O)COc1ccc(Br)cc1-c1csc(Cc2ccc(Cl)cc2)n1` [D94, {4-Bromo-2-[2-(4-chlorobenzyl)thiazol-4-yl]phenoxy}acetic acid], the IC50 in experiment [1] (setting [5]) and in experiment [2] (setting [6]) was under 500 nM in each case.

Consider `O=C(O)COc1ccc(Br)cc1C(=O)c1cnn(-c2c(Cl)cc(Cl)cc2Cl)c1` [D35, 4-Bromo-2-[1-(2,4,6-trichlorophenyl)-1H-pyrazole-4-carbonyl]phenoxyacetic acid], for which the IC50 in experiment [1] (setting [5]) and in experiment [2] (setting [6]) was under 500 nM each time.

For `O=C(c1cnn(-c2ccccc2)c1)c1cc(Br)ccc1OCc1nn[nH]n1` [D4, [5-Bromo-2-(2H-tetrazol-5-ylmethoxy)phenyl](1-phenyl-1H-pyrazol-4-yl)ketone], the IC50 in experiment [1] (setting [5]) was over 5000 nM; in experiment [2] (setting [6]), under 500 nM.

For `O=C(O)COc1ccc(Br)cc1C(=O)c1cnn(-c2cccc(C(F)(F)F)c2)c1` [D25, 4-Bromo-2-[1-(3-trifluoromethylphenyl)-1H-pyrazole-4-carbonyl]phenoxyacetic acid], the IC50 in experiment [1] (setting [5]) and in experiment [2] (setting [6]) was under 500 nM throughout.

For the compound `O=C(O)COc1ccc(Br)cc1-c1nc(-c2ccc(Cl)cc2)no1` [D102, {4-Bromo-2-[3-(4-chlorophenyl)-[1,2,4]oxadiazol-5-yl]phenoxy}acetic acid], the IC50 in experiment [1] (setting [3]) and in experiment [2] (setting [4]) was under 500 nM each time.
